Source: the RepoRT retention time repository

Assay: HILIC, Waters Atlantis Premier BEH Z-HILIC, 100 × 2.1 mm, 1.7 µm, 40 °C, 0.16 mL/min, estimated dead time 1.4 min; A: water + 20 mM ammonium carbonate + 5 µM medronic acid; B: 10% water + 90% acetonitrile + 2 mM ammonium carbonate + 0.5 µM medronic acid; gradient (min/%B) 0/97 18/55 18.1/20 21.5/20 22/97 23.5/97 25.5/97
Settings: stereoisomer not certain

LC retention time	Compound
9.7 min	O=C(O)CCC(O)C(=O)O (configuration not stated) [2-hydroxy glutaric acid]
19.2 min	NC(N)=NCCCC(N)C(=O)O (configuration not stated) [Arginine]
4.62 min	O=C(O)CCCCC1SCC2NC(=O)NC21 (configuration not stated) [Biotin]
10.1 min	C[N+](C)(C)CC(O)CC(=O)[O-] (configuration not stated) [Carnitine]
9.93 min	NC(CCC(=O)O)C(=O)O (configuration not stated) [Glutamic acid]
10.6 min	NC(=O)CCC(N)C(=O)O (configuration not stated) [Glutamine]
6.73 min	CCC(C)C(N)C(=O)O (configuration not stated) [Isoleucine]
3.29 min	CC(O)C(=O)O (configuration not stated) [Lactic Acid]
6.36 min	CC(C)CC(N)C(=O)O (configuration not stated) [Leucine]
19.4 min	NCCCCC(N)C(=O)O (configuration not stated) [Lysine]
12.6 min	O=C(O)C(CO)OP(=O)(O)O (configuration not stated) [Phosphoglyceric acid A]
9.71 min	O=C(O)CCC(=O)O [Succinic Acid]

The next lines start with the compound.

Compound	LC retention time
O=C(O)CCC(=O)C(=O)O [2-Oxoglutaric acid]	9.15 min
Nc1ncnc2c1ncn2C1OC(COP(=O)(O)OP(=O)(O)O)C(O)C1O (configuration not stated) [ADP]	11.6 min
Nc1ncnc2c1ncn2C1OC(COP(=O)(O)O)C(O)C1O (configuration not stated) [AMP]	9.68 min
Nc1ncnc2c1ncn2C1OC(COP(=O)(O)OP(=O)(O)OP(=O)(O)O)C(O)C1O (configuration not stated) [ATP]	13.3 min
CC(=O)SCCNC(=O)CCNC(=O)C(O)C(C)(C)COP(=O)(O)OP(=O)(O)OCC1OC(n2cnc3c(N)ncnc32)C(O)C1OP(=O)(O)O (configuration not stated) [Acetyl-CoA]	10.4 min
Nc1ncnc2c1ncn2C1OC(CO)C(O)C1O (configuration not stated) [Adenosine]	4.45 min
O=C(O)CC(O)(CC(=O)O)C(=O)O [Citric acid]	13.7 min
CC(C)(COP(=O)(O)OP(=O)(O)OCC1OC(n2cnc3c(N)ncnc32)C(O)C1OP(=O)(O)O)C(O)C(=O)NCCC(=O)NCCS (configuration not stated) [CoenzymeA]	12 min
Cc1cc2nc3c(=O)[nH]c(=O)nc-3n(CC(O)C(O)C(O)COP(=O)(O)OP(=O)(O)OCC3OC(n4cnc5c(N)ncnc54)C(O)C3O)c2cc1C (configuration not stated) [FAD]	7.63 min
O=C(CO)C(O)C(O)C(O)COP(=O)(O)O (configuration not stated) [Fructose 6-phosphate]	11.5 min
O=P(O)(O)OCC1OC(O)(COP(=O)(O)O)C(O)C1O (configuration not stated) [Fructose-1,6-bisphosphate]	15.5 min
Nc1nc2c(ncn2C2OC(COP(=O)(O)OP(=O)(O)OP(=O)(O)O)C(O)C2O)c(=O)[nH]1 (configuration not stated) [GTP]	15.7 min
O=P(O)(O)OCC1OC(O)C(O)C(O)C1O (configuration not stated) [Glucose-6-phosphate]	12.5 min
O=P(O)(O)OCC(O)CO (configuration not stated) [Glycerol-3-phosphate]	10.6 min
OCC1OC(O)C(O)C(O)C1O (configuration not stated) [Hexose]	7.87 min
O=C(O)CC(C(=O)O)C(O)C(=O)O (configuration not stated) [Isocitric acid]	13.6 min
NC(=O)C1=CN(C2OC(COP(=O)(O)OP(=O)(O)OCC3OC(n4cnc5c(N)ncnc54)C(O)C3O)C(O)C2O)C=CC1 (configuration not stated) [NADH]	8.9 min
NC(=O)C1=CN(C2OC(COP(=O)(O)OP(=O)(O)OCC3OC(n4cnc5c(N)ncnc54)C(OP(=O)(O)O)C3O)C(O)C2O)C=CC1 (configuration not stated) [NADPH]	13.8 min
NC(=O)c1ccc[n+](C2OC(COP(=O)(O)OP(=O)(O)OCC3OC(n4cnc5c(N)ncnc54)C(OP(=O)(O)O)C3O)C(O)C2O)c1 (configuration not stated) [NADP]	13.3 min
NC(=O)c1ccc[n+](C2OC(COP(=O)(O)OP(=O)(O)OCC3OC(n4cnc5c(N)ncnc54)C(O)C3O)C(O)C2O)c1 (configuration not stated) [NAD]	10.5 min
C=C(OP(=O)(O)O)C(=O)O [PEP]	13.4 min
O=C(CO)COP(=O)(O)O [Triose phosphate]	10.4 min
CC(=O)NC1C(OP(=O)(O)OP(=O)(O)OCC2OC(n3ccc(=O)[nH]c3=O)C(O)C2O)OC(CO)C(O)C1O (configuration not stated) [UDP-GlcNAc]	10.1 min
CCC(=O)OC(CC(=O)[O-])C[N+](C)(C)C (configuration not stated) [carnitine-C3]	6.89 min
O=C1CC(C(=O)O)NC(=O)N1 (configuration not stated) [dihydroorotic acid]	4.6 min
